For one data set, the target named is T1, Aβ 1-42 aggregates (Homo sapiens, UniProt P05067).
T1 construct: Aβ 1-42 aggregates
As to conditions: read-out: Binding Affinity Ki; cited from earlier work.

Data set [1] concerns the target T2, Amyloid (AD patient's brain slice) (Homo sapiens, UniProt P05067).
T2 construct: The brain slices were 20 um thick
Nature of the data set: IC50 determination with [18F]-PiB by ex vivo competition assay using autoradiography staining. The class given is binding. Conditions: for blocking of [18F]-PiB tissue binding, qualitative: human AD brains. The source says: (§1) Ex Vivo Competition Assay Using Amyloid (AD patient's brain slice) Autoradiography Staining

A short description of data set [2]: MicroPET dynamic scan of rat brain after tail vein injection. The class given is in vivo, white Sprague-Dawley rat. Conditions: 30 min dynamic scan. On the procedure: A white Sprague-Dawley rat was injected via tail vein with ˜850 uCi AD-CB-001, formulated in 10% EtOH:water. A dynamic scan was conducted for 30 min on a R4 microPET scanner. The data was reconstructed using 1 min framing.

Data set [3] is described as follows: MicroPET imaging in WT and App mice. The class given is in vivo. Conditions: for brain clearance / washout rate: WT and App mice brain, compared with [18F]PiB.
Data set [4] deals with Amyloid (AD brain slices). Nature of the data set: [18F]-CB001 competition studies on AD brain slices. The format is binding, human.
The subject of data set [5] is Amyloid (AD patient's brain slice). Nature of the data set: Amyloid autoradiography staining of AD patient's brain slices, grey/white matter binding with wash protocols. Details: species or system human. As to conditions: for Grey/white matter binding ratio using mild wash conditions: 30%/40%/20% EtOH:water; for order of (non-specific) white matter binding: AD brain slices; for amyloid autoradiography staining (ex vivo), qualitative: AD patient's brain / normal brain; for grey to white matter binding ratio: human AD brain slices, EtOH:water washes. On the procedure:
as §1
A study was conducted to examine the grey to white matter binding ratios for 4 different tracers: CB-001, CB-003, FDDNP and F-PiB (FIG. 7 and FIG. 8). […] After the human brain slices from AD patients were incubated with a given tracer for 30 min, the slices were washed with various EtOH:water solutions in an attempt to optimize the grey-to white matter ratios (FIG. 9). The results were surprising and unexpected in view of previous work performed by other researchers. CB-001 has a slightly higher c Log P than FDDNP (3.8 vs 3.4) and would be expected to have poorer washout than FDDNP based on these values. […] More specifically, the white matter binding of FDDNP is several shades darker than CB-001's white matter binding, indicating low non-specific binding of CB-001.

For a further data set, the target named is Aβ42 soluble aggregates (Homo sapiens, UniProt P05067). Nature of the data set: Surface plasmon resonance (Biacore) assay, Aβ42 soluble aggregates. As to conditions: SPR; read-out: binding to soluble aggregates. Background: Surface plasmon resonance follows binding to a sensor surface in real time, without labels.
Aβ42 soluble aggregates, sequence (P05067 672-713 limits assumed): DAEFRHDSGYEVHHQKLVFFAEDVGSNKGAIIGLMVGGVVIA
Data set [6] addresses Aβ42 insoluble aggregates (Homo sapiens, UniProt P05067). Briefly: Surface plasmon resonance (Biacore) assay, Aβ42 insoluble aggregates. As to conditions: SPR; read-out: binding to insoluble aggregates.
A further data set has as its system Aβ monomer. Conditions: read-out: Binding Affinity IC50; cited from earlier work.
The target of the next data set is Aβ fibrils. Conditions: read-out: Binding Affinity Ki; cited from earlier work.
Setting [7] is: determination 1, vs [18F]-PiB, read-out: IC50 1.
Where [8] appears, read: mean of determinations, vs [18F]-PiB, read-out: Average IC50.
Where [9] appears, read: 30 min incubation, PBS, PBS, 20 um AD brain slices.

SMILES strings stand for the structures. Where two headings read alike, the source gives them in different places. Bounds are passed on as bounds.

T2 sequence (P05067 672-711 limits assumed): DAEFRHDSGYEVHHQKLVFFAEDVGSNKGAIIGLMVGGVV
T1 sequence (P05067 672-713 limits assumed): as the sequence (P05067 672-713 limits assumed) above
Aβ42 insoluble aggregates, sequence (P05067 672-713 limits assumed): as above

Turning to `CNc1ccc(/C=C2\Oc3ccc([125I])cc3C2=O)cc1` [Aurones], the Ki (usually a measure of affinity in units of concentration, obtained from inhibition or displacement) on Aβ 1-42 aggregates was 0.00124 µM.
Take `FCCOc1ccc2c(c1)[nH]c1ccccc12` [CB-001, 2-(2-fluoroethoxy)-9H-carbazole]: the IC50 (commonly the concentration needed to halve the response being measured) in data set [1] (setting [7]) worked out at 1 µM; in [1] (determination 2, vs [18F]-PiB, read-out: IC50 2), 0.48 µM; in data set [1] (setting [8]), 0.74 µM. Besides, the “brain entry and washout, qualitative” value in [2] was “Within minutes, the tracer entered the rat brain and quickly washed out”. Besides, the “brain uptake, qualitative” value in data set [3] (App and WT mice, microPET) is “very good brain uptake”. For the same compound, the “plaque binding of the tracer in competition studies” value in data set [4] (AD brain slices) is “reversible plaque binding and competition with PiB, and little/no white matter binding”. Besides, the “blocking of [18F]-CB001 staining” value in [4] (cold competitor, increasing concentrations) is “PiB appears to block tracer binding with the same strength as cold CB001”. The “Grey/white matter binding ratio using mild wash conditions” value in data set [5] (setting [9]) is given as “Poor”. Also, in [5] (30 min incubation, PBS, 70%/90%/70% EtOH:water, PBS, 20 um AD brain slices), the “Grey/white matter binding ratio using harsh FDDNP wash conditions” value is “Excellent”. Besides, the “order of (non-specific) white matter binding” value in data set [5] is “FDDNP>CB001>[18F]-PiB>CB003”. Further, the “amyloid autoradiography staining (ex vivo), qualitative” value in data set [5] is “good amyloid binding and little/no white matter binding”. Besides, the “grey to white matter binding ratio” value in [5] (30 min incubation) is reported as “much better grey to white matter ratio compared to FDDNP”.
Turning to `FCCOCCOCCOc1ccc2c(c1)[nH]c1ccccc12` [CB-003, 2-(2-(2-(2-fluoroethoxy)ethoxy)ethoxy)-9H-carbazole], the figures for the Kd (on Aβ42 soluble aggregates; in data set [6]) were 0.262 µM and 0.009 µM, respectively. The IC50 in [1] (setting [7]) amounted to 1.1 µM; in data set [1] (determination 6, vs [18F]-PiB, read-out: IC50 6), 0.9 µM; in [1] (determination 13, vs [18F]-PiB, read-out: IC50 13) it was 0.92 µM; in [1] (setting [8]), 0.973 µM. In addition, the “blocking of [18F]-PiB tissue binding, qualitative” value is “still competes with 18F-PiB for binding sites in human AD brains” in [1] and “concentration-dependent blocking of [18F]-PiB tissue binding” in data set [1] (listed as CB003). The “brain clearance / washout rate” value was “faster washout rate than 18F-PiB” in [3] and “much faster than with [18F]PiB” in [3] (listed as [18F]-CB003). The “larger brain/muscle ratio of App mice compared to WT mice” value in [3] (microPET) is listed as “up to 25%”. The “Grey/white matter binding ratio using mild wash conditions” value in data set [5] (setting [9]) is “Excellent”. In data set [5], the “order of (non-specific) white matter binding” value is “FDDNP>CB001>[18F]-PiB>CB003”. Further, the “amyloid autoradiography staining (ex vivo), qualitative” value in data set [5] was “amyloid deposits were clearly visible in the grey matter with little white matter uptake”; in data set [5] (listed as [18F]-CB003), “clearly distinguishes between Alzheimer's and normal brains”. In addition, in [5] (30 min incubation), the “grey to white matter binding ratio” value is given as “excellent grey to white matter binding ratios”.
Take `Nc1c(/N=N/c2ccc(-c3ccc(/N=N/c4cc(S(=O)(=O)O)c5ccccc5c4N)cc3)cc2)cc(S(=O)(=O)O)c2ccccc12` [Congo Red]: in the data set on Aβ monomer, the IC50 was 2 to 10 µM.
On to `COc1cc(/C=C/C(=O)/C=C(O)/C=C/c2ccc(O)c(OC)c2)ccc1O` [Curcumin], for which the IC50 in the data set on Aβ monomer is 10 to 20 µM.
As for `CNc1ccc(-c2nc3ccc(O)cc3s2)cc1` [PiB, reference compound], at Aβ fibrils, the Ki is 0.0028 µM.
With `Cc1ccc2c(c1)sc(-c1ccc(N(C)C)cc1)[n+]2C` [Thioflavin T], in the data set on Aβ monomer, the IC50 is over 500 µM.

The values above are taken from patent US20110046378A1, “Novel Imaging Agents for Detecting Neurological Dysfunction” (SIEMENS MEDICAL SOLUTIONS USA, INC., priority 2008, published 2011).
